Reference: paper PMC8424644, “Thermodynamic Stability and Speciation of Ga(III) and Zr(IV) Complexes with High-Denticity Hydroxamate Chelators” (Inorganic Chemistry, 2021)
Where two headings read alike, the source gives them in different places.

What was measured:
[1] = design: method as in ref 43 (DFOB), 38 (DFOE), 11 (DOTA), 54 (NOTA), 55 (H2hox), 56 (PrP9), 57 (HBED); details: (re)calculated from constants of original publications, pH 7.4, cL = 10 μM, cGa(III) = 1 μM; ref 43 (DFOB), 38 (DFOE), 11 (DOTA), 54 (NOTA), 55 (H2hox), 56 (PrP9), 57 (HBED); cited from earlier work
[2] = design: method as in PMID 31940188; details: calculations by Holland; cited from earlier work
[3] = taken from the literature, cited from earlier work
[4] = cited from earlier work
[5] = pGa calculation (ligand sequestering ability); format: physicochemical; details: pGa = −log[Ga(III)free], pH 7.4, cL = 10 μM, cGa(III) = 1 μM
From the text: (§1) Despite a large variety of PET chelators synthesized and tested in order to provide strong coordination of Ga(III) and Zr(IV) in vivo, until now it is has been hard to avoid the release of these metal ions in the body. Here we report two new Ga(III) and Zr(IV) hydroxamate chelators, designed to achieve an efficient sequestering of these metal ions but also to understand how the cyclization and the introduction of an additional hydroxamate group influences the stability of Zr(IV) complexes. Therefore, it is important to evaluate and compare the Ga(III)- and Zr(IV)-sequestering abilities of H3L1 and H4L2 with those of other chelators. However, the direct comparison of the stability constants of metal complexes is not straightforward, and other tools taking into account all the physicochemical properties of the ligands, i.e. their denticity, coordination modes, and acid–base properties, should be used.[52] In order to reliably compare the chelating abilities of H3L1 and H4L2 toward Ga(III) and Zr(IV) ions, the pM values were calculated. pFe was originally introduced by Raymond for the comparison of iron-siderophore systems;[53] pGa = −log[Ga(III)free] and pZr = −log[Zr(IV)free] were calculated at pH 7.4 with cL = 10 μM and cGa(III)/Zr(IV) = 1 μM (Table 2).

[6] = pZr calculation (ligand sequestering ability); format: physicochemical; details: pZr = −log[Zr(IV)free], pH 7.4, cL = 10 μM, cZr(IV) = 1 μM
From the text: as §1

[7] = design: method as in ref 24 (DFOB), 2 (THPN), 25,58 (3,4,3-LI-HOPO), 25,59 (DTPA); details: (re)calculated from constants of original publications, pH 7.4, cL = 10 μM, cZr(IV) = 1 μM; ref 24 (DFOB), 2 (THPN), 25,58 (3,4,3-LI-HOPO), 25,59 (DTPA); cited from earlier work
[8] = cited from earlier work; for pKa attributed to the deprotonation of a water molecule in the Zr(IV) complex: ref 24 (DFOB), 27 (EDTA)
[9] = pFe calculation (ligand sequestering ability); format: physicochemical; details: pH=7.4, cL=10 μM, metal 1 μM
From the text: Despite a large variety of PET chelators synthesized and tested in order to provide strong coordination of Ga(III) and Zr(IV) in vivo, until now it is has been hard to avoid the release of these metal ions in the body. Here we report two new Ga(III) and Zr(IV) hydroxamate chelators, designed to achieve an efficient sequestering of these metal ions but also to understand how the cyclization and the introduction of an additional hydroxamate group influences the stability of Zr(IV) complexes. Therefore, it is important to evaluate and compare the Ga(III)- and Zr(IV)-sequestering abilities of […] and […] with those of other chelators. […] page 15: 100 100 [ZrL4]+ [ZrL3]+ [ZrL4H ] -1 80 [ZrL3H ] 80 2+ -1 [ZrHL4] […] Experimental section. Ligands' sequestering ability Table S3. pFe values with various synthetic and biological chelators a Ligand pFe Chelating groups and ligands geometry […] 24.3 3 hydroxamate groups in a cyclic arrangement […] 23.3 4 hydroxamate groups in a linear arrangement […] 26.9 3 hydroxamate groups in a cyclic arrangement […] 23.61 3 hydroxamate groups in a linear arrangement […] DFOE 27.73 3 hydroxamate groups in a cyclic arrangement […] protonation and stability constants given in original publications; the hydrolysis constants of Fe(III) ions were taken from the literature14 and are given in the experimental section 15 (also on this page, place not known: […]

[10] = design: method as in PMID 11666621; details: acidic range; cited from earlier work
[11] = acidic range; cited from earlier work
[12] = Fe(III)-L + Zr(IV)-NTA metal–metal competition UV–vis titrations; format: physicochemical; details: Fe(III)-DFOB + Zr(IV)-NTA competition
[13] = taken from the literature, ref 38 (H3L3), 35 (H3L4), 36,38 (DFOE)

SMILES: Oc1cccc2ccc(CNCCNCc3ccc4cccc(O)c4n3)nc12 [H2hox]
- pGa [1]: 28.4[55]

SMILES: CC(=O)N(O)CCCCCNC(=O)CCC(=O)N(O)CCCCCNC(=O)CCC(=O)N(O)CCCCCNC(=O)CCC(=O)N(O)CCCCCN [DFO*]
- log β [Zr(L)] predicted from computational calculations [2]: 51.56

SMILES: O=C(O)CCP(=O)(O)CN1CCN(CP(=O)(O)CCC(=O)O)CCN(CP(=O)(O)CCC(=O)O)CC1 [PrP9]
- pGa [1]: 23.1[56]

SMILES: CN(O)C(=O)CCC(=O)NCCOCC(C)(COCCNC(=O)CCC(=O)N(C)O)COCCNC(=O)CCC(=O)N(C)O [H3L4]
- log β [FeHL] [3]: 29.82
- log β [FeL] ([3]; ref 38 (H3L3), 35 (H3L4), 36,38 (DFOE)): 27.34
- log K LH2 (ligand protonation; log K2) [4, 13]: 8.97
- log K LH3 (ligand protonation; log K3) [4, 13]: 8.26
- log K LH (ligand protonation; log K1) [4, 13]: 9.50
- log β LH2 (ligand protonation) [4, 13]: 18.47
- log β LH3 (ligand protonation) [4, 13]: 26.73
- log β LH (ligand protonation) [4, 13]: 9.50
- pGa [5]: 21.9
- pZr [6]: 32.6

SMILES: O=C(O)CN(CCN(CC(=O)O)CC(=O)O)CCN(CC(=O)O)CC(=O)O [DTPA]
- pZr [7]: 32.3[25],[59]

SMILES: O=C(O)CN1CCN(CC(=O)O)CCN(CC(=O)O)CC1 [NOTA]
- pGa [1]: 27.4[54]

SMILES: O=C1CCC(=O)N(O)CCCCCNC(=O)CCC(=O)N(O)CCCCCNC(=O)CCC(=O)N(O)CCCCCN1 [DFOE, desferrioxamine E, reference compound]
- log K LH2 (ligand protonation; log K2) [4, 13]: 9.42
- log K LH3 (ligand protonation; log K3) [4, 13]: 8.65
- log K LH (ligand protonation; log K1) [4, 13]: 9.89
- log β LH (ligand protonation) [4, 13]: 9.89
- pGa [1]: 25.2[38]
- pZr [6]: 31.0

SMILES: O=C(O)CN1CCN(CC(=O)O)CCN(CC(=O)O)CCN(CC(=O)O)CC1 [DOTA, 1,4,7,10-tetraazacyclododecane-1,4,7,10-tetraacetic acid]
- pGa [1]: 20.5[11]

SMILES: O=C(O)CN(CCN(CC(=O)O)CC(=O)O)CC(=O)O [EDTA, ethylenediaminetetraacetic acid]
- pKa attributed to the deprotonation of a water molecule in the Zr(IV) complex [8]: 6.2

SMILES: O=C(O)CN(CCN(CC(=O)O)Cc1ccccc1O)Cc1ccccc1O [HBED]
- pGa [1]: 28.0[57]

SMILES: O=C1CCCCCN(O)C(=O)CCNC(=O)CCCCCN(O)C(=O)CCNC(=O)CCCCCN(O)C(=O)CCN1 [H3L3]
- pFe [9]: 26.9
- log K LH (ligand protonation; log K1) [4, 13]: 9.89
- log β LH (ligand protonation) [4, 13]: 9.89
- pGa [5]: 25.4
- pZr [6]: 31.5

SMILES: O=C(NCCCN(CCCCN(CCCNC(=O)c1cccc(=O)n1O)C(=O)c1cccc(=O)n1O)C(=O)c1cccc(=O)n1O)c1cccc(=O)n1O [3,4,3-LI-HOPO]
- pZr [7]: 44.0[25],[58]

SMILES: O=C1CCN(O)C(=O)CCCNC(=O)CCN(O)C(=O)CCCNC(=O)CCN(O)C(=O)CCCNC(=O)CCN(O)C(=O)CCCN1 [CTH36]
- log β [Zr(L)] predicted from computational calculations [2]: 52.84

SMILES: CC(=O)N(O)CCCCCNC(=O)CCC(=O)N(O)CCCCCNC(=O)CCC(=O)N(O)CCCCCN [DFOB]
- pZr [7]: 32.2[24]
- pKa of the Th(IV) complex [10]: 1.9
- log β [Zr(L)] predicted from computational calculations [2]: 41.20
- pKa1 (protonation constant of the Ga(III) complex) [11]: 0.78
- pKa2 (protonation constant of the Ga(III) complex) [11]: 1.10
- log β [ZrH(DFOB)OH] [8]: 40.04
- log β [ZrHDFOB] ([8]; different ionic strength): 47.7
- pKa attributed to the deprotonation of a water molecule in the Zr(IV) complex [8]: 6.36
- log Kamine (protonation constant of the amino group) [4]: 10.97
- pGa [1]: 21.6[43]
- log β [ZrHDFOB] ([12]; spectra collected after 1h incubation): 45.9
- log β [ZrHDFOB] ([12]; spectra collected after 24h incubation): 46.1(2)
